Experimental data taken from PMC11400632, “Substrate selectivity and inhibition of the human lysyl hydroxylase JMJD7” (Protein Science : A Publication of the Protein Society, 2024).
Read-outs that look alike come from different tables or passages of the source. One block for each molecule: values may come before it. Square brackets hold non-standard residues; d marks the D form. Ends that are not written are not given here. Peptide text beside a SMILES is read from it. Orn = NCCC[C@H](N)C(=O)O

Experiments:
human JMJD7 [1] = target: T1, human JMJD7 (Homo sapiens, UniProt P0C870); assay: MALDI-TOF MS JMJD7 inhibition assay; type: biochemical
T1 construct: human JMJD7 (residues 1–316) with an N‐terminal His6‐tag; His6 (N); made in house; host or cells: Escherichia coli Rosetta (DE3)
T1 sequence (P0C870 whole entry, the tested form may be a part): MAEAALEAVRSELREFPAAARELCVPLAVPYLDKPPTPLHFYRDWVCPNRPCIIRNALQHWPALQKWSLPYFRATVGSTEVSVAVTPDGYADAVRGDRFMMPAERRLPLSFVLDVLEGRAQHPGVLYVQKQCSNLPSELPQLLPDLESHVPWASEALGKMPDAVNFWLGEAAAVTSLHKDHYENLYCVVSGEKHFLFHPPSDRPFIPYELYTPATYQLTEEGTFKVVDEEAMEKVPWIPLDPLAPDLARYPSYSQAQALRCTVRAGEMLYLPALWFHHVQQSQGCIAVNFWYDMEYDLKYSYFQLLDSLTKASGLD
Description: Due to signal overlaps between some DRG1 peptides and the reference DRG1‐Lys substrate, we synthesized a shorter reference substrate peptide (DRG1‐Lys, residues 17–40) for use in the MS‐based inhibition assays. Synthetic DRG1 peptides (residues 16–40, 10 or 50 μM) were preincubated with JMJD7 (200 nM) for 15 min, after which time the DRG1‐Lys substrate (residues 17–40, 5 μM), 2OG (10 μM), FAS […] and LAA […] were added, and the reaction were carried out for 25 min at room temperature. Most of the DRG1 peptides were not active as JMJD7 inhibitors at 10 μM (residual activity of JMJD7 >50%) (Figure S41a,b), with exceptions including the DRG1‐Orn, DRG1‐hGln and DRG1‐4pyrA peptides.
Single point screening assays were as follows; initially, JMJD7 (200 nM) and substituted DRG1 peptide (10 or 50 μM) were incubated for 15 min, followed by the addition of a mixture of the DRG1‐Lys substrate (5 μM), 2OG (10 μM), FAS (10 μM) and LAA (100 μM) in a final volume of 50 μL in Tris‐buffer (pH 7.5) and incubated for additional 25 min at room temperature. […] Reactions were quenched by the addition of 10% (v/v) formic acid and mixed 1:1 with CHCCA matrix (1:1 v/v MeCN:H2O) then analyzed by MALDI‐TIMS‐TOF MS. JMJD7 activity was determined by calculating the integral of hydroxylated peptide and normalized to a control reaction in absence of potential inhibitory peptides. Every experiment was performed in duplicate (n = 2), error bars are reported as SE.

human JMJD7 [2] = target: T1, human JMJD7; assay: LC-MS assay of JMJD7-catalyzed hydroxylation/oxidation of DRG1 peptides; type: biochemical; settings: 10 μM FAS, 100 μM LAA
Description: Initial assays were carried out by incubation of purified recombinant (Markolovic et al., [2018]) human JMJD7 (2 μM) in the presence of a DRG1 derived peptide (10 μM), 2OG (10 μM), ferrous ammonium sulfate (FAS, 10 μM), and L‐ascorbate (LAA, 100 μM) in Tris buffer at pH 7.5 for 2 h at room temperature. Potential conversion to a hydroxylated product (+16 Da mass shift) was monitored by liquid‐chromatography‐mass‐spectrometry (LC–MS). […] The assay results also implied that DRG1‐Orn was hydroxylated, but to a lower extent (~21%) than DRG1‐Lys. […] The alcohol‐containing peptide hydroxynorleucine (DRG1‐HNle), was hydroxylated at relatively low levels (~24%), implying that H‐bonding interactions and positive charge of the N^ɛ‐amino group of lysine are important for efficient binding and catalysis, but that a neutral alcohol can still be accommodated at the active site (Figure 3f) (Markolovic et al., [2018]).
All reagents were procured from Sigma Aldrich. 2‐Oxoglutarate (2OG, 10 mM) and L‐ascorbic acid (LAA, 50 mM) solutions were prepared freshly by dissolving the solids in deionized water. Ferrous ammonium sulfate (FAS) solution was prepared freshly by dissolving FAS at 400 mM in 20 mM HCl with subsequent dilution to 1 mM using deionized water. JMJD7 assays using DRG1 (16–40) based peptides were performed with the following conditions: (i) 2 or 5 μM JMJD7, 10 μM DRG1 peptide, 100 μM LAA, 10 μM FAS, 10 μM 2OG in mM 50 Tris‐buffer (pH 7.5), (ii) 2 μM JMJD7, 10 μM DRG1 peptide, 100 μM LAA, 10 μM FAS, 20 μM 2OG in mM 50 Tris‐buffer (pH 7.5). Reactions were initiated by addition of enzyme to the cosubstrate/substrate solution in a final reaction volume of 50 μL with 2 h incubation at room temperature. A positive control reaction containing enzyme and a validated peptide substrate was included in all screening studies. After 2 h, reactions were stopped by addition of 5 μL of 10% (v/v) LC–MS grade formic acid (Fisher Scientific) and transferred to a 96 well plate (Agilent). Intact mass peptide analysis was performed by LC–MS using an Agilent 1290 infinity II LC system equipped with an Agilent 1290 multisampler and an Agilent 1290 high speed pump and connected to an Agilent 6550 accurate mass iFunnel quadrupole time of flight (Q‐TOF) mass spectrometer. The reaction mixture (4 μL) was injected and loaded onto a ZORBAX RRHD Eclipse Plus C18 column (Agilent). Solvent A consisted of LC–MS grade water containing 0.1% (v/v) formic acid and solvent B consisted of MeCN containing 0.1% (v/v) formic acid. Peptides were separated using a step wise gradient (0 min – 95% solvent A, 1.0 min – 80% solvent A, 3.0 min – 45% solvent A, 4.0 min – 45% solvent A, 5.0 min – 0% solvent A, 6.0 min – 0% solvent A, 7.0 min – 95% solvent A). This was followed by a 3 min elution with 95% solvent A to re‐equilibrate the column. Flow rates were 0.2 mL/min. The mass spectrometer was operated in the positive ion mode with a drying gas temperature (280°C), drying gas flow rate (13 L min^−1), nebulizer pressure (40 psig), sheath gas temperature (350°C), sheath gas flow rate (12 L min^−1), capillary voltage (4000 V), nozzle voltage (1000 V). Data were analyzed using Agilent MassHunter Qualitative Analysis (Version B.07.00) software.

human JMJD7 [3] = target: T1, human JMJD7; assay: MALDI-TOF MS JMJD7 inhibition assay; type: biochemical; remark: listed apart in the source
human JMJD7 [4] = target: T1, human JMJD7; assay: Q-TOF-MS protein-observed analysis of intact JMJD7 (adduct formation); type: binding; settings: 2 μM JMJD7, 20 μM peptide; for JMJD7-peptide adduct formation: Q-TOF-MS of intact protein
Description: To investigate inhibition by the DRG1‐Cys/Sec peptides, we performed protein‐observed analysis of JMJD7 (2 μM) in the presence of the DRG1‐Cys/Sec peptides (20 μM) under likely non‐denaturing conditions (Figure 7g). The observed masses correspond to the JMJD7‐DRG1‐Cys (40.79 kDa) and JMJD7‐DRG1‐Sec (40.84 kDa) adducts, implying that DRG1‐Cys/Sec might inhibit JMJD7 via formation of S‐S/Se‐S bonds, plausibly with Cys132, though further work is required to validate this (Figure 7g).

[5] = target: human Jumonji-C (JmjC) domain-containing protein 7 (JMJD7), residues 1-316 (human) (UniProt P0C870)
Sequence of human Jumonji-C (JmjC) domain-containing protein 7 (JMJD7), residues 1-316 (human) (P0C870 whole entry, the tested form may be a part): as above

[6] = 200 nM JMJD7 preincubated 15 min with peptide (1 nM–150 μM), 5 μM DRG1-Lys (17–40) substrate, 10 μM 2OG, 25 min, room temperature, Tris pH 7.5, MALDI MS, duplicate (n = 2), ± SE, read-out: IC50 (JMJD7 inhibition, with 15 min preincubation)

- single point inhibition of JMJD7 at 50 μM peptide (human JMJD7 [1]; 50 μM DRG1 peptide, 200 nM JMJD7, 15 min preincubation, 5 μM DRG1-Lys substrate): clear inhibition
- extent of hydroxylation by JMJD7 at higher 2OG concentration (human JMJD7 [2]; 2 μM JMJD7, 10 μM peptide, 20 μM 2OG, pH 7.5, 2 h incubation): ~ 31%
- extent of hydroxylation (+16 Da) by JMJD7 (human JMJD7 [2]; standard conditions: 2 μM JMJD7, 10 μM DRG1 peptide, 10 μM 2OG, Tris pH 7.5, 2 h, room temperature): ~ 21%
- IC50 (human JMJD7 [3]; [6]): 14 µM
Molecule: CC(C)C[C@H](NC(=O)CNC(=O)[C@H](CC(C)C)NC(=O)[C@H](Cc1c[nH]cn1)NC(=O)[C@H](Cc1c[nH]cn1)NC(=O)[C@H](C)NC(=O)[C@@H](NC(=O)[C@H](C)NC(=O)[C@H](CCCN)NC(=O)[C@H](CC(N)=O)NC(=O)[C@H](CCCCN)NC(=O)[C@H](CCC(N)=O)NC(=O)[C@@H](NC(=O)[C@H](CCCNC(=N)N)NC(=O)[C@H](C)N)[C@@H](C)O)[C@@H](C)O)C(=O)N[C@@H](CC(C)C)C(=O)N[C@@H](CCCCN)C(=O)N[C@@H](C)C(=O)N[C@@H](CCCNC(=N)N)C(=O)N[C@@H](CC(C)C)C(=O)N[C@@H](C)C(=O)N[C@@H](CCCCN)C(=O)N[C@@H](CC(C)C)C(=O)N[C@@H](CCCNC(=N)N)C(=O)N[C@@H](CCCNC(=N)N)C(N)=O [DRG1‐Orn] (H-ARTQKN[Orn]ATAHHLGLLKARLAKLRR-NH2)

- single point inhibition of JMJD7 under reducing conditions (human JMJD7 [1]; 10 and 50 μM peptide, DTT or TCEP (1 mM) as reductant in the reaction buffer): lack inhibitory activity
- JMJD7-peptide cross-linking in the presence of DTT (human JMJD7 [4]; DTT in the buffer, Q-TOF-MS): no cross‐linking is observed
- JMJD7-peptide adduct formation (human JMJD7 [4]): observed in lower extent at 1 min
- IC50 (human JMJD7 [3]; [6]): 1.25 µM
- IC50 (human JMJD7 [3]; same assay conditions but without preincubation, read-out: IC50 (JMJD7 inhibition, without preincubation)): 16 µM
Molecule: ARTQKNCATAHHLGLLKARLAKLRR-NH2 [DRG1‐Cys]

- JMJD7-peptide adduct formation (human JMJD7 [4]): Adduct formation was not observed
- degree of oxidation (+16 Da) of cysteine/methionine analog peptides by JMJD7 (human JMJD7 [2]; 2 μM JMJD7, 10 μM peptide, 10 μM 2OG): did also not undergo oxidation
Molecule: ARTQKNSerATAHHLGLLKARLAKLRR [DRG1‐Ser, 25-mer DRG1 (16–40) peptide with Ser at position 22]

- Km of JMJD7-catalysed hydroxylation, steady-state kinetics by SPE-MS (0.1-5.0 μM peptide, 100 nM JMJD7) [5]: 3.1 µM
Molecule: DRG1-LysE peptide (DRG1 residues 16-40, (E)-dehydrolysine in place of Lys22)

- Km of JMJD7-catalysed hydroxylation, steady-state kinetics by SPE-MS (0.1-5.0 μM peptide, 100 nM JMJD7) [5]: 1.4 µM
Molecule: ARTQKNKATAHHLGLLKARLAKLRR-NH2 [DRG1-Lys substrate peptide (DRG1 residues 16-40)]
